SMILES	melting point [°C]
CCCCCCCCCCCCCCCCCC(=O)N1CC1C#N (stereo unspecified)	85 to 88
CCc1noc(C)c1C(=O)Nc1cccc(F)c1	99.5 to 101
N#CCCCCC(=NO)c1ccc(Br)cc1	86.5 to 88
COC(=O)c1sccc1NS(=O)(=O)c1nc2nc(C3CC3)cc(C)n2n1	133 to 134
COC(=O)c1ccccc1CC(=O)Nc1cccc(/C=C/c2nc(C3CCC3)cs2)c1	143 to 144
c1cc(OCC2CO2)c2cn[nH]c2c1 (stereo unspecified)	60
Cc1c(CC(=O)O)c2ccccc2c(=O)n1O	198 to 200
CCCc1nn(C)c2c(=O)[nH]c(-c3cc(-c4nccn4C)ccc3OCC)nc12	199 to 202
COC(=O)N1CC(Cc2ccc(OC)c(OC3CCCC3)c2)N(C(=O)OC)C1=O (stereo unspecified)	138 to 140
CCOC(=O)c1csc(Cc2ccc([N+](=O)[O-])cc2)n1	122 to 123
CCNC(=O)Nc1nc2cc(-c3cnc(N(C)C)nc3)cc(C(=O)NCC)n2n1	328 to 334
CC(C)c1nc(COC(N)=O)n(Cc2ccc[nH]c2=O)c1Sc1cc(Cl)cc(Cl)c1	214
Oc1c(CCl)cc(F)cc1CCl	70
COC(=O)COc1cc2c(c(Cl)c1Cl)C(=O)C(CCOC(C)=O)C2 (stereo unspecified)	111 to 113
O=C1CCC(C(=O)c2ccccc2)N1 (stereo unspecified)	175
CCCC1=C(C#N)C(c2cccc([N+](=O)[O-])c2Cl)c2c[nH]nc2N1 (stereo unspecified)	234 to 235
COc1c(C(=O)O)[nH]c2cccc(C)c12	136
COC(=O)c1ccc2c(c1)OCCC2NC(=O)OCc1ccccc1 (stereo unspecified)	140 to 142
C=C1CCC2C3CCc4cc(O)c(C=O)cc4C3CCC12C (stereo unspecified)	128 to 130
N#Cc1nc(C=Cc2cnn(-c3c(Cl)cc(C(F)(F)F)cc3Cl)n2)[nH]c1C#N	111 to 112
CC(C)(C)OC(=O)N1CCC(C(=O)c2ccccc2)CC1	91 to 93
CCC1(CC)C(=O)c2cc(O)c(C)c(C)c2C1=O	141 to 142

SMILES	melting point [°C]
O=C(NC(=O)c1ccccc1)NC1CCN(CC(=O)C2COc3ccccc3O2)CC1 (stereo unspecified)	160 to 161
COc1ccc(N2N=C3c4cc(C)sc4CCCC3CC2=O)cc1 (stereo unspecified)	136 to 138
Cn1cc(-c2cc3nccnc3[nH]2)c2cc(C(=O)O)ccc21	350
CCCCCCCCCCCCCCCCOC(=O)c1cnccn1	53 to 54
Cc1cccc2c(=O)nc(-c3cccc(C(=O)O)n3)sc12	260 to 261
COc1cccc(CS(=O)c2nc3cnccc3[nH]2)c1 (stereo unspecified)	176 to 179
CN(CCCO)C(=O)c1c2ccc(Cl)cc2c(-c2ccccc2)n1C	85 to 88
O=C(OCC1CC1)c1ncn2c1[C@@H]1CCN1C(=O)c1c(I)cccc1-2	190 to 191
CN1CCC(N2C(=O)CN=C(c3ccccc3F)c3cc(Cl)ccc32)CC1	145 to 146
Cc1cc(COc2ccc(S(=O)(=O)NC[C@@H](C(=O)NO)N3CCN(S(C)(=O)=O)CC3)cc2)c2ccccc2n1	185
O=C(NCc1cccnc1)c1ccc(OCc2ccc3ccccc3n2)cc1C1(c2ccccc2)CC2CCC1C2 (stereo unspecified)	179 to 181
Cc1cccc(CC(=O)c2ccnc(-c3ccc(N4CCOCC4)cc3)c2)n1	114
COc1cccc(/C=C/C2=CCN(Cc3nc4ccccc4[nH]3)CC2)c1	202 to 204
Cc1c(C(=O)Nc2ccc(N3CCCCC3)c(C#N)c2)cnn1C	217 to 218
CC[C@@]1(C=O)CCCN(CCc2c[nH]c3ccc(F)cc23)C1=O	116
CC12CCCC=C1CCC1C2CCC2(C)C(O)CCC12 (stereo unspecified)	144 to 147
Cc1cc2nc(OC(C)C)nc(-c3cccc(C(F)(F)F)c3)c2s1	106
CC(C)(C)c1nn(-c2c(F)cc(Cl)c3nc(Cl)sc23)c(=O)o1	157 to 158
O=C(c1ccc(F)cc1)C1CCN(CCn2c(=O)[nH]c3cc(F)ccc3c2=O)CC1	248
ClC(Cl)(Cl)c1cc(-c2ccccc2)c2ccc3c(-c4ccccc4)cc(C(Cl)(Cl)Cl)nc3c2n1	180 to 184
COC1C2=C3C(=CN1OC)OCCC3CC(CCC#N)C2 (stereo unspecified)	105 to 107
c1cc(C2CCC(c3ccc(OCC4CO4)cc3)CC2)ccc1OCC1CO1 (stereo unspecified)	154

Now from value to compound:

melting point [°C]	SMILES
207 to 208	COc1ccc2c(c1)C(C)(N1C(=O)c3ccccc3C1=O)C(=O)N2c1ccc(F)cc1 (stereo unspecified)
213 to 215	CC(C)OC(=O)c1cc(-n2c(=O)[nH]c3c(c2=O)CCO3)c(F)cc1Cl
90 to 92	CC(C)(O)COC(=O)N1CCN(C#N)CC1
128 to 129	CCCC(=O)OCOC(=O)C1=C(C)NC(C)=C(C(=O)OC)C1c1cccc(Cl)c1Cl (stereo unspecified)
210 to 213	CNC(=O)c1ccc(N2CCN(Cc3cc4c(c(OC(F)F)c3)OC(C)C(=O)N4)CC2)cc1 (stereo unspecified)
199 to 201	CN1C(=O)OCCc2cc(Nc3ncc(Cl)c(Nc4c(F)cccc4OCCO)n3)ccc21
85 to 87	COc1ccc(Sc2ccc(CC(=O)O)cc2)cc1
146 to 148	ClCc1ccc2ccc3cccc4ccc1c2c34
73 to 76	COC(=O)c1c(O)ccc(CNC(=O)CCCCCNC(=O)OC(C)(C)C)c1O
215	CCCCc1nc(Sc2ccccc2)c(CO)n1Cc1ccc(-c2ccccc2C(=O)O)cc1
108 to 109	O=CNc1ccc(-c2c[nH]cn2)cc1
119 to 121	O=C(O)C1C=CCn2c(=O)n(CCCS)c(=O)n21 (stereo unspecified)
95 to 97	Cc1ccc(NC(=O)C(C)C)s1
95 to 97	CCOC(=O)c1cccc2c1N(CCN1CC=C(c3c[nH]c4cc(F)ccc34)CC1)S(=O)(=O)N(C(C)C)C2
138 to 147	CCCCCCC(C(=O)Nc1ccccc1O)n1cnc(NC(=O)c2ccccc2S(=O)(=O)O)c1 (stereo unspecified)
128 to 130	COC1N=C(c2ccccc2Cl)c2cc(Cl)ccc2-c2cn(C)cc21 (stereo unspecified)
124	CC(C)C[C@@H](/C=C/CCO)NP(=O)(c1ccccc1)c1ccccc1
> 300	CCn1c(=O)c(=O)[nH]c2ccc([N+](=O)[O-])cc21
163 to 165	CCOC(=O)Cn1c2ccccc2c2sccc(=O)c21
83 to 84	Fc1cccc(F)c1-c1nc(COc2ccc(Oc3ccc(C(F)(F)F)cc3)cc2)no1
210 to 214	CS(=O)(=O)NCCCc1c[nH]c(-c2ccc(F)cc2)c1-c1ccncc1
135 to 136	CC(C)Oc1ccc(C(=O)NCCCCCCCNC(=O)c2ccc(OC(C)C)cc2)cc1
78	CN(Cc1ccc(C2=NCCN2C(=O)OC(C)(C)C)cc1)C(=O)/C=C/CNCS(=O)(=O)c1ccc([N+](=O)[O-])cc1[N+](=O)[O-]
199	O=C1OC(=O)c2cc(Oc3ccc(-c4ccccc4)cc3)ccc21
140 to 150	CC(=O)N(N=Cc1c(Cl)cccc1Cl)c1nncn1N(C(C)=O)C(C)=O
280	COc1c(C)cc(N2CCN(c3ccc(-n4c(C)n[nH]c4=O)cc3)CC2)cc1C
64 to 66	CC(C)c1nc(CN(C)C(=O)N[C@H](C(=O)N[C@@H](Cc2ccccc2)C[C@H](O)[C@H](Cc2ccccc2)NC(=O)OCc2cnc(C(C)C)s2)C(C)C)cs1

— a melting point compilation (Tetko et al.; mined from patent text by program, amines drawn as free bases though some values may be those of a salt)
